PubChem BioAssay (NCI)
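Here, GI50 denotes the concentration required for 50% inhibition of growth. TGI is the concentration that stops growth completely.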

How the values were obtained:
Assay in all cases: growth of human tumour cells (NCI), 384-well format
CCRF-CEM leukemia = tested on: CCRF-CEM leukemia
KM12 colon = tested on: KM12 colon
SF-295 CNS = tested on: SF-295 CNS
NCI-H322M lung = tested on: NCI-H322M lung
OVCAR-8 ovarian = tested on: OVCAR-8 ovarian
NCI-H23 lung = tested on: NCI-H23 lung
SK-OV-3 ovarian = tested on: SK-OV-3 ovarian
UO-31 renal = tested on: UO-31 renal
MDA-MB-231 breast = tested on: MDA-MB-231 breast
LOX IMVI melanoma = tested on: LOX IMVI melanoma
SW-620 colon = tested on: SW-620 colon
MDA-MB-468 breast = tested on: MDA-MB-468 breast
HT29 colon = tested on: HT29 colon
HOP-92 NSCLC = tested on: HOP-92 NSCLC
MCF7 breast = tested on: MCF7 breast
M14 melanoma = tested on: M14 melanoma
OVCAR-4 ovarian = tested on: OVCAR-4 ovarian
SK-MEL-28 melanoma = tested on: SK-MEL-28 melanoma
T-47D breast = tested on: T-47D breast
CAKI-1 renal = tested on: CAKI-1 renal
HL-60(TB) leukemia = tested on: HL-60(TB) leukemia
BT-549 breast = tested on: BT-549 breast
OVCAR-3 ovarian = tested on: OVCAR-3 ovarian
SF-539 CNS = tested on: SF-539 CNS
SF-268 CNS = tested on: SF-268 CNS
HS 578T breast = tested on: HS 578T breast
RXF 393 renal = tested on: RXF 393 renal
NCI-H460 NSCLC = tested on: NCI-H460 NSCLC
NCI-H522 lung = tested on: NCI-H522 lung
U251 glioblastoma = tested on: U251 glioblastoma
HCT-15 colon = tested on: HCT-15 colon
ACHN renal = tested on: ACHN renal
MALME-3M melanoma = tested on: MALME-3M melanoma
A549 NSCLC = tested on: A549 NSCLC
DU-145 prostate = tested on: DU-145 prostate
COLO 205 colon = tested on: COLO 205 colon
IGROV1 ovarian = tested on: IGROV1 ovarian
HCC-2998 colon = tested on: HCC-2998 colon
SNB-19 CNS = tested on: SNB-19 CNS
SR leukemia = tested on: SR leukemia
HOP-62 NSCLC = tested on: HOP-62 NSCLC
SN12C renal = tested on: SN12C renal
MOLT-4 leukemia = tested on: MOLT-4 leukemia
786-0 renal = tested on: 786-0 renal
NCI-H226 lung = tested on: NCI-H226 lung
UACC-62 melanoma = tested on: UACC-62 melanoma
HCT-116 colon = tested on: HCT-116 colon
SNB-75 CNS = tested on: SNB-75 CNS
K-562 leukemia = tested on: K-562 leukemia
MDA-MB-435 melanoma = tested on: MDA-MB-435 melanoma
NCI/ADR-RES ovarian = tested on: NCI/ADR-RES ovarian
TK-10 renal = tested on: TK-10 renal
RPMI-8226 leukemia = tested on: RPMI-8226 leukemia
PC-3 prostate = tested on: PC-3 prostate
EKVX NSCLC = tested on: EKVX NSCLC
UACC-257 melanoma = tested on: UACC-257 melanoma
SK-MEL-5 melanoma = tested on: SK-MEL-5 melanoma
A498 renal = tested on: A498 renal

Structure (SMILES): Cn1ncc(NC(=O)c2nc(-c3c(F)cccc3F)sc2N)c1N1CC[C@@H](N)[C@H](F)CC1
- GI50 (CCRF-CEM leukemia): 1.48 µM
- TGI (CCRF-CEM leukemia): 3.11 µM
- GI50 (KM12 colon): 6.59 µM
- TGI (KM12 colon): 19.3 µM
- GI50 (SF-295 CNS): 5.52 µM
- TGI (SF-295 CNS): 17.8 µM
- GI50 (NCI-H322M lung): 6.85 µM
- TGI (NCI-H322M lung): 21.3 µM
- GI50 (OVCAR-8 ovarian): 7.11 µM
- TGI (OVCAR-8 ovarian): 19.7 µM
- GI50 (NCI-H23 lung): 10.9 µM
- TGI (NCI-H23 lung): 23 µM
- GI50 (SK-OV-3 ovarian): 1.83 µM
- TGI (SK-OV-3 ovarian): 9.95 µM
- GI50 (UO-31 renal): 1.96 µM
- TGI (UO-31 renal): 5.94 µM
- GI50 (MDA-MB-231 breast): 4.31 µM
- TGI (MDA-MB-231 breast): 16 µM
- GI50 (LOX IMVI melanoma): 4.33 µM
- TGI (LOX IMVI melanoma): 14.5 µM
- GI50 (SW-620 colon): 3.29 µM
- TGI (SW-620 colon): 12.2 µM
- GI50 (MDA-MB-468 breast): 2.8 µM
- TGI (MDA-MB-468 breast): 11.6 µM
- GI50 (HT29 colon): 7.09 µM
- TGI (HT29 colon): 19.9 µM
- GI50 (HOP-92 NSCLC): 3.18 µM
- TGI (HOP-92 NSCLC): 13 µM
- GI50 (MCF7 breast): 2.82 µM
- TGI (MCF7 breast): 10.9 µM
- GI50 (M14 melanoma): 2.44 µM
- TGI (M14 melanoma): 14.3 µM
- GI50 (OVCAR-4 ovarian): 18.9 µM
- TGI (OVCAR-4 ovarian): 34.2 µM
- GI50 (SK-MEL-28 melanoma): 10.4 µM
- TGI (SK-MEL-28 melanoma): 22.2 µM
- GI50 (T-47D breast): 15.3 µM
- TGI (T-47D breast): 30 µM
- GI50 (CAKI-1 renal): 1.16 µM
- TGI (CAKI-1 renal): 4.92 µM
- GI50 (HL-60(TB) leukemia): 1.51 µM
- TGI (HL-60(TB) leukemia): 2.91 µM
- GI50 (BT-549 breast): 1.72 µM
- TGI (BT-549 breast): 5.44 µM
- GI50 (OVCAR-3 ovarian): 3.89 µM
- TGI (OVCAR-3 ovarian): 14.9 µM
- GI50 (SF-539 CNS): 3.21 µM
- TGI (SF-539 CNS): 13.3 µM
- GI50 (SF-268 CNS): 3.47 µM
- TGI (SF-268 CNS): 14.2 µM
- GI50 (HS 578T breast): 2.83 µM
- TGI (HS 578T breast): 5.52 µM
- GI50 (RXF 393 renal): 3.15 µM
- TGI (RXF 393 renal): 13.1 µM
- GI50 (NCI-H460 NSCLC): 3.49 µM
- TGI (NCI-H460 NSCLC): 12.6 µM
- GI50 (NCI-H522 lung): 2.49 µM
- TGI (NCI-H522 lung): 9.18 µM
- GI50 (U251 glioblastoma): 6.23 µM
- TGI (U251 glioblastoma): 18.7 µM
- GI50 (HCT-15 colon): 5.03 µM
- TGI (HCT-15 colon): 17.5 µM
- GI50 (ACHN renal): 3.25 µM
- TGI (ACHN renal): 15.6 µM
- GI50 (MALME-3M melanoma): 2.58 µM
- TGI (MALME-3M melanoma): 12.7 µM
- GI50 (A549 NSCLC): 4.22 µM
- TGI (A549 NSCLC): 15.7 µM
- GI50 (DU-145 prostate): 4.19 µM
- TGI (DU-145 prostate): 15.7 µM
- GI50 (COLO 205 colon): 5.42 µM
- TGI (COLO 205 colon): 19 µM
- GI50 (IGROV1 ovarian): 3.69 µM
- TGI (IGROV1 ovarian): 13.7 µM
- GI50 (HCC-2998 colon): 8.83 µM
- TGI (HCC-2998 colon): 21.2 µM
- GI50 (SNB-19 CNS): 12.1 µM
- TGI (SNB-19 CNS): 26.1 µM
- GI50 (SR leukemia): 0.0471 µM
- TGI (SR leukemia): 0.602 µM
- GI50 (HOP-62 NSCLC): 5.55 µM
- TGI (HOP-62 NSCLC): 18.3 µM
- GI50 (SN12C renal): 2.55 µM
- TGI (SN12C renal): 11.1 µM
- GI50 (MOLT-4 leukemia): 1.61 µM
- TGI (MOLT-4 leukemia): 2.98 µM
- GI50 ([…]-0 renal): 4.22 µM
- TGI (786-0 renal): 14.8 µM
- GI50 (NCI-H226 lung): 2.22 µM
- TGI (NCI-H226 lung): 9.62 µM
- GI50 (UACC-62 melanoma): 3.34 µM
- TGI (UACC-62 melanoma): 11.7 µM
- GI50 (HCT-116 colon): 4.01 µM
- TGI (HCT-116 colon): 15.6 µM
- GI50 (SNB-75 CNS): 2.93 µM
- TGI (SNB-75 CNS): 10.8 µM
- GI50 (K-562 leukemia): 2.19 µM
- TGI (K-562 leukemia): 10.6 µM
- GI50 (MDA-MB-435 melanoma): 3.2 µM
- TGI (MDA-MB-435 melanoma): 15.4 µM
- GI50 (NCI/ADR-RES ovarian): 16.5 µM
- TGI (NCI/ADR-RES ovarian): 33.2 µM
- GI50 (TK-10 renal): 2.88 µM
- TGI (TK-10 renal): 15.4 µM
- GI50 (RPMI-8226 leukemia): 0.0454 µM
- TGI (RPMI-8226 leukemia): 4.12 µM
- GI50 (PC-3 prostate): 3.23 µM
- TGI (PC-3 prostate): 12.9 µM
- GI50 (EKVX NSCLC): 3.8 µM
- TGI (EKVX NSCLC): 17.5 µM
- GI50 (UACC-257 melanoma): 7.52 µM
- TGI (UACC-257 melanoma): 20 µM
- GI50 (SK-MEL-5 melanoma): 1.35 µM
- TGI (SK-MEL-5 melanoma): 12.2 µM
- GI50 (A498 renal): 3.02 µM
- TGI (A498 renal): 13.7 µM
